# In ChEMBL document CHEMBL4229326, “Modulators of 14-3-3 Protein-Protein Interactions” (J Med Chem, 2018):
# Legend:
# 14-3-3 protein sigma = biological target: T1, 14-3-3 protein sigma (Homo sapiens, UniProt P31947); experiment: Inhibition of TMR-GG-RLSHpSSLPG-NH2 binding to recombinant human GST-tagged 14-3-3-sigma preincubated for 30 mins followed by TMR-GG-RLSHpSSLPG-NH2 addition and measured after 60 mins by fluorescence polarization assay
# T1 sequence (P31947 whole entry): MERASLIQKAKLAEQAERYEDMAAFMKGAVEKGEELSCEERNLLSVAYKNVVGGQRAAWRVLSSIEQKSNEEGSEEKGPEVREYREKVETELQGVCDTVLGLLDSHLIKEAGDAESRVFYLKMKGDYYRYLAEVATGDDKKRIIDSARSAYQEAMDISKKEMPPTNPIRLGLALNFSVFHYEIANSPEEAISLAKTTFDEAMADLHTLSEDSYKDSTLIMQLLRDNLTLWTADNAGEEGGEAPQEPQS
# 14-3-3 protein gamma = biological target: T2, 14-3-3 protein gamma (Homo sapiens, UniProt P61981); experiment: Binding affinity to GST-tagged 14-3-3-gamma (unknown origin) expressed in Escherichia coli BL21(DE3) assessed as inhibition of interaction with PRAS40 in African green monkey COS7 cells preincubated with protein followed by cell addition by ELISA
# T2 sequence (P61981 whole entry): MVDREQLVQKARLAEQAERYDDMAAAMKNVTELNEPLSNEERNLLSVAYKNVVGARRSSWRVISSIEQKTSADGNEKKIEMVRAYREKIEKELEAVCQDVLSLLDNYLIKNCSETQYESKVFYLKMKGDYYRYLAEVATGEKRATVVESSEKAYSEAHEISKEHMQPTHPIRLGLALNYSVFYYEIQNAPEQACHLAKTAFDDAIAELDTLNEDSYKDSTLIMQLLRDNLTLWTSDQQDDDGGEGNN
# [1] = biological target: T3, 14-3-3 protein zeta/delta (Homo sapiens, UniProt P63104); experiment: Binding affinity to human full length 14-3-3zeta by fluorescence polarization assay
# T3 sequence (P63104 whole entry): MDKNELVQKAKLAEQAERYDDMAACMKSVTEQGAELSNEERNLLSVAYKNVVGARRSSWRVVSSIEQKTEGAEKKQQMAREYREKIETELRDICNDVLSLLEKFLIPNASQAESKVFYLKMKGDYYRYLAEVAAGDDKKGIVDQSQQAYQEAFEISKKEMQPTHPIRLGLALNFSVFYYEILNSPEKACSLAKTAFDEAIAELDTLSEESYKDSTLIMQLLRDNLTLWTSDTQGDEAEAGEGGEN
# DG-75 = experiment: Growth inhibition of human DG75 cells after 48 hrs by trypan blue exclusion method; assay type: functional, cell-based; details: DG-75, 48 h
# [2] = biological target: Potassium channel subfamily K member 9 (Homo sapiens) (UniProt Q9NPC2); experiment: Stabilization of human HA-tagged TASK-3 interaction with 14-3-3 in Xenopus laevis oocytes assessed as increase of TASK-3 expression in plasma membrane at 10 uM by antibody-based luminometric assay relative to control; assay type: cell-based
# [3] = biological target: T3, 14-3-3 protein zeta/delta; experiment: Binding affinity to recombinant human His-tagged 14-3-3zeta expressed in Escherichia coli K12 by ITC method
# Potassium channel subfamily K member 9 (Homo sapiens), sequence (Q9NPC2 whole entry): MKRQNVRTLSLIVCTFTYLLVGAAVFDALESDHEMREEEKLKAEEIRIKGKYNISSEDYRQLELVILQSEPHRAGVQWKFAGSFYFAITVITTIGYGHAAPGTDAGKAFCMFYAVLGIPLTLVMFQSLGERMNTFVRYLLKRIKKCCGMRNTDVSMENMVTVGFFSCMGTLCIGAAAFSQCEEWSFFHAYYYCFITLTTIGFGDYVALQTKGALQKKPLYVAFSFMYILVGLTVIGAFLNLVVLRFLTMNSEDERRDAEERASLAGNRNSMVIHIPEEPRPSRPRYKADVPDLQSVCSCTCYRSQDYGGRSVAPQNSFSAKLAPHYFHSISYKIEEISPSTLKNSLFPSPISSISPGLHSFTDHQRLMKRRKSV
IC50 (14-3-3 protein sigma) [µM],SMILES,further results
2.6 to 3.6,CC(C)=CC(=O)N[C@@H](COP(=O)(O)O)C(=O)NCCc1ccc(O)cc1,–
2.6 to 3.6,CC(C)=CC(=O)N[C@@H](COP(=O)(O)O)C(=O)NCc1ccc2c(c1)OCO2,–

# Further lines, the molecule ahead of its results:
SMILES,IC50 (14-3-3 protein sigma) [µM],further results
Cc1nc(/N=N/c2ccc(C(=O)O)cc2)c(COP(=O)(O)O)c(C=O)c1O,–,IC50 (14-3-3 protein gamma): 16.4 µM
[N-]=[N+]=Nc1ccc(C(=O)NCC(=O)N[C@@H](COP(=O)(O)O)C(=O)NCCc2ccc(O)cc2)cc1,2.6 to 3.6,–
O=C(CNC(=O)c1ccc(CCl)cc1)N[C@@H](COP(=O)(O)O)C(=O)NCc1ccc2c(c1)OCO2,2.6 to 3.6,–
CC(C)C[C@H](NC(=O)[C@H](CC(=O)O)NC(=O)[C@]1(C)CCCCCCCCCCCC[C@](C)(NC(=O)CNC(=O)[C@@H](N)CCC(N)=O)C(=O)N[C@@H](CC(C)C)C(=O)N[C@@H](CC(=O)O)C(=O)N[C@@H](C)C(=O)N1)C(=O)N[C@@H](C)C(=O)N[C@@H](CO)C(=O)O,–,Kd [1]: 0.041 µM
CN(CCCCCl)P(=O)(OCc1ccc([N+](=O)[O-])o1)C(F)(F)C[C@H](NC(=O)CNC(=O)c1ccc(N)cc1)C(=O)NCCc1ccc(O)cc1 (stereo not given in full),–,IC50 (DG-75): 5 µM
COC[C@H]1CC[C@@H]2/C1=C\[C@]1(C)C(=C(C(C)C)[C@@H]3CCO[C@@H]31)[C@@H](O[C@H]1C[C@@H]3COC(C)(C)O[C@H]3[C@H](O)[C@H]1O)[C@H](O)[C@@H]2C,–,Activity [2]: 45%
O=C(CNC(=O)c1ccc(CCl)cc1)N[C@@H](COP(=O)(O)O)C(=O)NCCc1ccc(O)cc1,2.6 to 3.6,–
COC[C@H]1CC[C@@H]2/C1=C\[C@]1(C)C(=C([C@H](C)COC(C)=O)CC1OCc1ccccc1/C=N/OC[C@@H](NC(=O)[C@H](CC(=O)O)NC(=O)[C@H](Cc1ccc(O)cc1)NC(=O)[C@H](CO)NC(=O)[C@H](CCC(N)=O)NC(=O)CNS(=O)(=O)c1cccc3c(N(C)C)cccc13)C(C)C)[C@@H](O)[C@H](O)[C@@H]2C (stereo not given in full),–,Kd [3]: 0.37 µM
